Results published in patent US10450270B2, “Glyoxamide substituted pyrrolamide derivatives and the use thereof as medicaments for the treatment of hepatitis B” (Janssen Sciences Ireland UC, priority 2013, dated 2019).

Experiments:
HBV [1] = assay: Anti-HBV activity, HepG2.2.15 stable transfected cell line, HBV DNA from secreted virions by realtime PCR; assay type: cell-based; settings: Hepatitis B virus
HBV [2] = assay: Anti-HBV activity, HepG2.117 inducible HBV producing cell line (Tet-off), intracellular HBV DNA by realtime PCR; assay type: cell-based; settings: Hepatitis B virus
[3] = Cytotoxicity in HepG2 cells, Resazurin viability assay; settings: human, HepG2 cells
[4] = 144 h, HepG2.2.15 cells, 6 days of treatment, HBV DNA from secreted virions, read-out: HepG 2.2.15 EC50
[5] = 72 h, HepG2.117 cells, 3 days of treatment, intracellular HBV DNA, read-out: HepG2 117 EC50
[6] = HepG2.2.15, 144 h, read-out: HepG 2.2.15 EC50 (μM)
[7] = HepG2.117, 72 h, read-out: HepG2 117 EC50 (μM)

Row | Structure (SMILES) | EC50 (HBV [1]; [4]) | EC50 (HBV [2]; [5]) | melting point | CC50 at 4 days [3] | EC50 (HBV [1]; [6]) | EC50 (HBV [2]; [7])
1 | Cn1cc(C(=O)C(=O)NC(C)(C)C)cc1C(=O)Nc1ccc(F)c(F)c1 [Compound 10, 4-(2-(tert-butylamino)-2-oxoacetyl)-N-(3,4-difluorophenyl)-1-methyl-1H-pyrrole-2-carboxamide] | 0.072 µM | 0.042 µM | 170.7 °C | > 25000 nM | – | –
2 | COC(=O)C(C)(C)NC(=O)C(=O)c1cc(C(=O)Nc2ccc(F)c(C)c2)n(C)c1 [Compound 7, methyl 2-(2-(5-(4-fluoro-3-methylphenylcarbamoyl)-1-methyl-1H-pyrrol-3-yl)-2-oxoacetamido)-2-methylpropanoate] | – | – | 161 °C | > 25000 nM | 0.21 µM | 0.058 µM
3 | CC[C@@H](C)NC(=O)C(=O)c1cc(C(=O)Nc2ccc(F)c(C)c2)n(C)c1 [Compound 1, (R)-4-(2-(sec-butylamino)-2-oxoacetyl)-N-(4-fluoro-3-methylphenyl)-1-methyl-1H-pyrrole-2-carboxamide] | 0.014 µM | 0.1 µM | 136.5 °C | > 25000 nM | – | –
4 | Cc1cc(NC(=O)c2cc(C(=O)C(=O)NC3(C)COC3)cn2C)ccc1F [Compound 4, N-(4-fluoro-3-methylphenyl)-1-methyl-4-(2-(3-methyloxetan-3-ylamino)-2-oxoacetyl)-1H-pyrrole-2-carboxamide] | – | – | 145.1 °C | > 25000 nM | 0.013 µM | 0.015 µM
5 | Cc1cc(NC(=O)c2cc(C(=O)C(=O)N[C@H]3CCOC3)cn2C)ccc1F [Compound 6, (S)—N-(4-fluoro-3-methylphenyl)-1-methyl-4-(2-oxo-2-(tetrahydrofuran-3-ylamino)acetyl)-1H-pyrrole-2-carboxamide] | – | – | 155.7 °C | > 25000 nM | 0.047 µM | 0.19 µM
6 | Cc1c(C(=O)C(=O)NC(C)(C)C)c(C)n(C)c1C(=O)Nc1ccc(F)c(F)c1 [Compound 20, 4-[(tert-Butylamino)(oxo)acetyl]-N-(3,4-difluorophenyl)-1,3,5-trimethyl-1H-pyrrole-2-carboxamide] | < 0.004 µM | 0.002 µM | – | > 25000 nM | – | –
7 | Cc1cc(NC(=O)c2cc(C(=O)C(=O)N[C@H](C)C(F)(F)F)cn2C)ccc1F [Compound 5, (R)—N-(4-fluoro-3-methylphenyl)-1-methyl-4-(2-oxo-2-(1,1,1-trifluoropropan-2-ylamino)acetyl)-1H-pyrrole-2-carboxamide] | 0.056 µM | 0.099 µM | 156.9 °C | > 25000 nM | – | –
8 | Cc1cc(NC(=O)c2cc(C(=O)C(=O)NC(C)(C)C(N)=O)cn2C)ccc1F [Compound 8, 4-{[(2-Amino-1,1-dimethyl-2-oxoethyl)amino](oxo)acetyl}-N-(4-fluoro-3-methylphenyl)-1-methyl-1H-pyrrole-2-carboxamide] | 0.052 µM | 0.038 µM | – | > 25000 nM | – | –
9 | Cn1cc(C(=O)C(=O)NC(C)(C)C)c(Cl)c1C(=O)Nc1ccc(F)c(C#N)c1 [Compound 23, 4-[(tert-Butylamino)(oxo)acetyl]-3-chloro-N-(3-cyano-4-fluorophenyl)-1-methyl-1H-pyrrole-2-carboxamide] | 0.005 µM | 0.008 µM | – | > 25000 nM | – | –
10 | Cn1cc(C(=O)C(=O)NC2(C)COC2)cc1C(=O)Nc1ccc(F)c(F)c1 [Compound 11, N-(3,4-difluorophenyl)-1-methyl-4-(2-(3-methyloxetan-3-ylamino)-2-oxoacetyl)-1H-pyrrole-2-carboxamide] | 0.05 µM | 0.096 µM | 180.7 °C | > 25000 nM | – | –
